“Also recorded” adds a separate entry of the source.
Assays:
HDAC6 [1] = target: T1, HDAC6 (Homo sapiens, UniProt Q9UBN7); assay: in vitro enzyme inhibition assay (Fluor de Lys deacetylation) of HDAC1, 4 and 6; type: biochemical; parameters: endogenous in cells; host or cells: A549 cells; settings: in vitro enzyme inhibition (FIG. 13)
T1 sequence (Q9UBN7 1-1215): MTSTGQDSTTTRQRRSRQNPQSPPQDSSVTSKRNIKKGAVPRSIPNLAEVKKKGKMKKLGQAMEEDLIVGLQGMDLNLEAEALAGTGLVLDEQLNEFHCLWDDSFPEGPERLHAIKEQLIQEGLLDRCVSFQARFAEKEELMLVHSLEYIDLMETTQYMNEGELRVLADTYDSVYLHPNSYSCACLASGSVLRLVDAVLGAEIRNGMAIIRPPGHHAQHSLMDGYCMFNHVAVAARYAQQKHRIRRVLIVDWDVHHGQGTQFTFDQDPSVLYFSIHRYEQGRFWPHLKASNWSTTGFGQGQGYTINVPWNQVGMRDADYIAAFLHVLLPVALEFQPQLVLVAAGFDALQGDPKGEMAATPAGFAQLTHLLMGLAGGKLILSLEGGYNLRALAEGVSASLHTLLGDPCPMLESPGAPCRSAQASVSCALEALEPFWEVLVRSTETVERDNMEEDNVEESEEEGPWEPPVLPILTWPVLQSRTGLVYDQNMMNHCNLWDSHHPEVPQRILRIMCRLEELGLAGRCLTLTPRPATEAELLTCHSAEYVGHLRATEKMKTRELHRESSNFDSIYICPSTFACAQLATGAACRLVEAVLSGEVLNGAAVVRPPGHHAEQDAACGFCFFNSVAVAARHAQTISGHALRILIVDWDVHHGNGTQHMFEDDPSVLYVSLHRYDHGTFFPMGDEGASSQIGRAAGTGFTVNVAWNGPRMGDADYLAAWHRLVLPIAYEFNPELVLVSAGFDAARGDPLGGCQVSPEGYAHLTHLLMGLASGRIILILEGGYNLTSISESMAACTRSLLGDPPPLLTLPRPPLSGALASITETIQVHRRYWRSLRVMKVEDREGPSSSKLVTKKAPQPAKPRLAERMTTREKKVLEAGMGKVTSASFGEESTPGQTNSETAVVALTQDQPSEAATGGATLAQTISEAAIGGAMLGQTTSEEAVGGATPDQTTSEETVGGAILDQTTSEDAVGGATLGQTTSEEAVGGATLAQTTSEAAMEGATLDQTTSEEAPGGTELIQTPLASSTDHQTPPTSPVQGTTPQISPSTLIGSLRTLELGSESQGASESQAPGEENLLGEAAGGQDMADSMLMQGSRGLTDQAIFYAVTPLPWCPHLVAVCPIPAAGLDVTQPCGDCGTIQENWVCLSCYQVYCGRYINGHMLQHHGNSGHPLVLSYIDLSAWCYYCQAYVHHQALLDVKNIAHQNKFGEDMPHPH

HDAC6 [2] = assay: acetylated α-tubulin and HDAC6 immunofluorescence in control (Neo) and HDAC6-overexpressing fibroblasts; type: cell-based, mouse; settings: tubacin 2 μM, 4 h
Protocol: All cells were cultured at 37° C. in a humidified incubator supplemented with 5% carbon dioxide. […] Mouse NIH-3T3 wild-type (Neo), HDAC6, HDAC6 double mutant, and HDAC1 overexpressing cells (gift from C. Hubbert, Duke University) were cultured as described (C. Hubbert et al., Nature 417, 455 (2002)1).
Detection of acetylated α-tubulin and acetylated histones by immunofluorescence was performed as described in Example 6 above. […] HDAC6 was detected using a rabbit polyclonal antibody (1:250-1:750; C.M.G., unpublished data) under the conditions used to detect acetylated α-tubulin (See Example 6 above). […] Images for these experiments were collected on a Zeiss LSM510 confocal scanning laser microscope at the appropriate wavelengths using the accompanying software and processed with Adobe Photoshop.

[3] = test system: rat hippocampal neurons and astrocytes; assay: cultured rat hippocampal neurons and astrocytes: viability, acetylated α-tubulin, synaptotagmin; type: cell-based
Protocol: All cells were cultured at 37° C. in a humidified incubator supplemented with 5% carbon dioxide. Human A549 lung carcinoma cells, Human HT-1080 fibrosarcoma cells, BSC-1 African green monkey kidney epithelial cells (all from American Tissue Culture Collection) were cultured in Dulbecco's modified eagle medium (DMEM) supplemented with 10% fetal bovine serum, 100 units/mL penicillin G sodium, 100 μg/mL streptomycin sulfate, and 2 mM L-glutamine (DMEM+). Human TAg Jurkat cells and mouse ROSA26 embryonic stem cells (gift of E. Roberston, Harvard University) were cultured as described (12). Mouse NIH-3T3 wild-type (Neo), HDAC6, HDAC6 double mutant, and HDAC1 overexpressing cells (gift from C. Hubbert, Duke University) were cultured as described (C. Hubbert et al., Nature 417, 455 (2002)1). Hippocampal neurons were dissociated from 1-day old rats and grown in culture using methods as described (E. N. Star, D. J. Kwiatkowski and V. N. Murthy, Nat. Neurosci. 5, 239 (2002)). All animal experiments were approved by Harvard University's standing committee on the use of animals in research and training.
Detection of acetylated α-tubulin and acetylated histones by immunofluorescence was performed as described in Example 6 above. […] For co-localization experiments, biotubacin (50 μM) treated A549 cells were fixed in 3.7% formaldehyde in TBS and processed as for detecting acetylated α-tubulin (See Example 6 above) with biotubacin detected using streptavidin-TR (1:500). HDAC6 was detected using a rabbit polyclonal antibody (1:250-1:750; C.M.G., unpublished data) under the conditions used to detect acetylated α-tubulin (See Example 6 above). Filamentous actin in HT-1080 cells was detected using TR-conjugated phalloidin (1 μg/mL), and depolymerized actin using FITC-conjugated deoxyribonuclease (10 μg/mL), following fixation in 3.7% formaldehyde in TBS. p58 (1:100) in NIH-3T3 cells was detected after fixation in 3.7% formaldehyde in TBS. […]

O=C(CCCCCCC(=O)Nc1ccc([C@@H]2OC(c3ccc(CO)cc3)C[C@H](CSc3nc(-c4ccccc4)c(-c4ccccc4)o3)O2)cc1)NO (stereo partly drawn) [tubacin]
selectivity for HDAC6 over HDAC1 and HDAC4 (HDAC6 [1]): 3 fold | co-localization of HDAC6 with acetylated microtubules (HDAC6 [2]; NIH-3T3 (Neo)): Increased co-localization of HDAC6 with acetylated α-tubulin; also recorded: caused an increase in the co-localization of HDAC6 along acetylated microtubules | α-tubulin acetylation in control (Neo) versus HDAC6-overexpressing NIH-3T3 cells (HDAC6 [2]): Decreased α-tubulin acetylation upon tubacin (2 μM) treatment (4 h) of HDAC6 overexpressing compared to control (Neo) NIH-3T3 cells; also recorded: induced an increase in α-tubulin acetylation; also recorded: decreased tubucin-induced α-tubulin acetylation | viability and morphology of neurons and astrocytes ([3]; 7-day old cultures: greater than 5 μM (10 μM, 48 h), 10-day old cultures: 1-2 μM, 96 h): decreased the viability and staining with synaptotagmin; also recorded: had no affect on the viability of 10-day old neurons and astrocytes; also recorded: caused morphological changes and cell death; also recorded: did not cause a significant decrease in the number of 10-day old rat hippocampal neurons or astrocytes | α-tubulin acetylation in neurons and astrocytes ([3]; tubacin 1 μM 96 h or 10 μM 48 h, niltubacin 5 μM): increased the acetylation of α-tubulin; also recorded: increased α-tubulin acetylation in both cell types | synaptotagmin staining / synapses ([3]; tubacin at least 1 μM for four days or 10 μM 48 h, niltubacin 5 μM): decreased the viability and staining with synaptotagmin; also recorded: had fewer synapses when compared to control cells

From patent publication US8178579B2, “Dioxanes and uses thereof” (President and Fellows of Harvard College, priority 2001, dated 2012)
